Data reported in patent US5210193A, “Piperazine derivatives” (American Cyanamid Company, priority 1990, dated 1993).
Converted amounts (≈) assume the structure as drawn.

How the values were obtained:
[1] = system: Escherichia coli ATCC 25922; test: in vitro antibacterial MIC, agar plate dilution; assay type: cell-based; details: Escherichia coli, ATCC25922, 18 h, 35° C., read-out: MIC
Protocol: (§1) The in vitro antimicrobial spectrum of the compounds of ths invention were determined by the agar plate dilution method with Mueller-Hinton agar and an inoculum of each test organism of approximately 10^4 colony forming units delivered by the Steers replicating device. The minimal inhibitory concentration (MIC) in mcg/ml is defined as the lowest concentration of test compound that inhibited visible growth after 18 hours incubation at 35° C. Results are given in Table I, with the test compounds identified by the number of their hereinafter described examples.

[2] = system: Escherichia coli CMC 84-11; test: in vitro antibacterial MIC, agar plate dilution; assay type: cell-based; details: Escherichia coli, CMC8411, 18 h, 35° C., read-out: MIC
Protocol: as §1

Escherichia coli LL 311 = test: in vitro antibacterial MIC, agar plate dilution; assay type: cell-based; details: Escherichia coli, LL311, 18 h, 35° C., read-out: MIC
Protocol: as §1

[3] = system: Morganella morganii CMC 84-37; test: in vitro antibacterial MIC, agar plate dilution; assay type: cell-based; details: Morganella morganii, CMC8437, 18 h, 35° C., read-out: MIC
Protocol: as §1

[4] = system: Proteus rettgeri CMC 84-41; test: in vitro antibacterial MIC, agar plate dilution; assay type: cell-based; details: Providencia rettgeri, CMC8441, 18 h, 35° C., read-out: MIC
Protocol: as §1

[5] = system: Pseudomonas aeruginosa LL-1244; test: in vitro antibacterial MIC, agar plate dilution; assay type: cell-based; details: Pseudomonas aeruginosa, LL1244, 18 h, 35° C., read-out: MIC
Protocol: as §1

[6] = system: Pseudomonas aeruginosa VGH 84-4; test: in vitro antibacterial MIC, agar plate dilution; assay type: cell-based; details: Pseudomonas aeruginosa, VGH844, 18 h, 35° C., read-out: MIC
Protocol: as §1

[7] = system: Serratia marcescens K 84-18; test: in vitro antibacterial MIC, agar plate dilution; assay type: cell-based; details: Serratia marcescens, K8418, 18 h, 35° C., read-out: MIC
Protocol: as §1

[8] = system: Serratia marcescens VGH 84-30; test: in vitro antibacterial MIC, agar plate dilution; assay type: cell-based; details: Serratia marcescens, VGH8430, 18 h, 35° C., read-out: MIC
Protocol: as §1

[9] = system: Staphylococcus aureus ATTC 29213; test: in vitro antibacterial MIC, agar plate dilution; assay type: cell-based; details: Staphylococcus aureus, ATTC29213, 18 h, 35° C., read-out: MIC
Protocol: as §1

[10] = system: Staphylococcus aureus Smith; test: in vitro antibacterial MIC, agar plate dilution; assay type: cell-based; details: Staphylococcus aureus, 18 h, 35° C., read-out: MIC
Protocol: as §1

[11] = system: Staphylococcus aureus VGH 84-45; test: in vitro antibacterial MIC, agar plate dilution; assay type: cell-based; details: Staphylococcus aureus, VGH8445, 18 h, 35° C., read-out: MIC
Protocol: as §1

[12] = system: Streptococcus faecalis UCI 85-19; test: in vitro antibacterial MIC, agar plate dilution; assay type: cell-based; details: Enterococcus faecalis, UCI8519, 18 h, 35° C., read-out: MIC
Protocol: as §1

[13] = system: Streptococcus faecalis VGH 84-65; test: in vitro antibacterial MIC, agar plate dilution; assay type: cell-based; details: Enterococcus faecalis, VGH8465, 18 h, 35° C., read-out: MIC
Protocol: as §1

[14] = system: Enterobacter aerogenes VGH 84-36; test: in vitro antibacterial MIC, agar plate dilution; assay type: cell-based; details: Klebsiella aerogenes, VGH8436, 18 hours, 35° C., read-out: MIC
Protocol: as §1

[15] = system: Enterobacter cloacae VGH 84-37; test: in vitro antibacterial MIC, agar plate dilution; assay type: cell-based; details: Enterobacter cloacae, VGH8437, 18 h, 35° C., read-out: MIC
Protocol: as §1

Klebsiella pneumoniae AD [16] = test: in vitro antibacterial MIC, agar plate dilution; assay type: cell-based; details: Klebsiella pneumoniae, 18 h, 35° C., read-out: MIC
Protocol: as §1

[17] = system: Klebsiella pneumoniae MOR 84-4; test: in vitro antibacterial MIC, agar plate dilution; assay type: cell-based; details: Klebsiella pneumoniae, MOR844, 18 h, 35° C., read-out: MIC
Protocol: as §1

[18] = system: Morganella morganii VGH 84-11; test: in vitro antibacterial MIC, agar plate dilution; assay type: cell-based; details: VGH8411, 18 hours, 35° C., read-out: MIC
Protocol: as §1

[19] = system: Staphylococcus aureus ATCC 25913; test: in vitro antibacterial MIC, agar plate dilution; assay type: cell-based; details: ATCC25913, 18 hours, 35° C.
Protocol: as §1

Klebsiella pneumoniae AD [20] = test: in vivo antibacterial activity, survival of infected mice (Table II); design: species or system Charles River CD-1 mice; details: subcutaneous
Protocol: Charles River CD-1 mice were infected with either Klebsiella pneumoniae AD or Staphylococcus aureus Smith. A single subcutaneous dose of the test compound was administered 1/2 hour after infection. […] The results appear in Tables II and III, wherein the representative test compounds are identified by the number of their hereinafter described examples.

[21] = system: Streptococcus faecalis ATTC 29212; test: in vitro antibacterial MIC, agar plate dilution; assay type: cell-based; details: Enterococcus faecalis, ATTC29212, 18 hours, 35° C., read-out: MIC
Protocol: as §1

Structure (SMILES)	MIC [1]	MIC [2]	MIC [4]	MIC [6]	MIC [10]	MIC [14]	MIC [15]	MIC (Klebsiella pneumoniae AD [16])	MIC [17]	MIC [18]	MIC [19]	Survival Ratio 7 Days After Infection (Klebsiella pneumoniae AD [20]; 0.25 mg/kg single dose)	Survival Ratio 7 Days After Infection (Klebsiella pneumoniae AD [20]; 1 mg/kg single dose)	Survival Ratio 7 Days After Infection (Klebsiella pneumoniae AD [20]; 4 mg/kg single dose)	Survival Ratio 7 Days After Infection (Klebsiella pneumoniae AD [20]; 16 mg/kg single dose)	Survival Ratio 7 Days After Infection (Klebsiella pneumoniae AD [20]; 64 mg/kg single dose)	MIC [21]	also measured
CCn1cc(C(=O)O)c(=O)c2cc(F)c(N3CCN(C)C(CF)C3)c(F)c21 (racemic) [Example 113, Racemic 1-Ethyl-6,8-difluoro-7-[3-(fluoromethyl)-4-methyl-1-piperazinyl]-1,4-dihydro-4-oxo-3-quinolinecarboxylic acid]	0.25 µg/mL (≈ 0.652 µM)	0.25 µg/mL (≈ 0.652 µM)	2 µg/mL (≈ 5.22 µM)	8 µg/mL (≈ 20.9 µM)	0.25 µg/mL (≈ 0.652 µM)	–	–	–	–	–	–	–	–	–	–	–	–	MIC (Escherichia coli LL 311): 0.5 µg/mL (≈ 1.3 µM); MIC [3]: 1 µg/mL (≈ 2.61 µM); MIC [5]: 32 µg/mL (≈ 83.5 µM); MIC [7]: 2 µg/mL (≈ 5.22 µM); MIC [8]: 16 µg/mL (≈ 41.7 µM); MIC [9]: 8 µg/mL (≈ 20.9 µM); MIC [11]: 0.25 µg/mL (≈ 0.652 µM); MIC [12]: 8 µg/mL (≈ 20.9 µM); MIC [13]: 8 µg/mL (≈ 20.9 µM)
CCn1cc(C(=O)O)c(=O)c2cc(F)c(N3CCNC(CN4CCN(C)CC4)C3)cc21 (stereo not shown) [Example 4, 1-Ethyl-6-fluoro 1,4-dihydro-7-[3-[(4-methyl-1-piperazinyl)methyl]-1-piperazinyl]-4-oxo-3-quinolinecarboxylic acid]	8 µg/mL (≈ 18.5 µM)	8 µg/mL (≈ 18.5 µM)	32 µg/mL (≈ 74.2 µM)	64 µg/mL (≈ 148 µM)	8 µg/mL (≈ 18.5 µM)	16 µg/mL (≈ 37.1 µM)	4 µg/mL (≈ 9.27 µM)	8 µg/mL (≈ 18.5 µM)	16 µg/mL (≈ 37.1 µM)	4 µg/mL (≈ 9.27 µM)	64 µg/mL (≈ 148 µM)	0/5	0/5	4/5	5/5	5/5	–	–
CCn1cc(C(=O)O)c(=O)c2cc(F)c(N3CCNC(CO)C3)cc21.Cl (stereo not shown) [Example 5, 1-Ethyl-6-fluoro-1,4-dihydro-7[3-(hydroxymethyl)-1-piperazinyl]-4-oxo-3-quinolinecarboxylic acid, hydrochloride]	2 µg/mL	1 µg/mL	1 µg/mL	8 µg/mL	8 µg/mL	16 µg/mL	1 µg/mL	0.5 µg/mL	2 µg/mL	0.5 µg/mL	32 µg/mL	0/5	0/5	0/5	0/5	5/5	–	–
CCn1cc(C(=O)O)c(=O)c2cc(F)c(N3CCNC(c4sccc4C)C3)cc21 (stereo not shown) [Example 16, 1-Ethyl-6-fluoro-1,4-dihydro-7-[3-(3-methyl-2-thienyl)-1-piperazinyl]-4-oxo-3-quinolinecarboxylic acid]	8 µg/mL (≈ 19.3 µM)	4 µg/mL (≈ 9.63 µM)	8 µg/mL (≈ 19.3 µM)	> 256 µg/mL	0.5 µg/mL (≈ 1.2 µM)	8 µg/mL (≈ 19.3 µM)	8 µg/mL (≈ 19.3 µM)	4 µg/mL (≈ 9.63 µM)	8 µg/mL (≈ 19.3 µM)	4 µg/mL (≈ 9.63 µM)	1 µg/mL (≈ 2.41 µM)	0/5	0/5	1/5	1/5	–	–	–
CCn1cc(C(=O)O)c(=O)c2cc(F)c(N3CCNC(c4sc5ccc(Cl)cc5c4C)C3)cc21 (stereo not shown) [Example 20, 7-[3-(5-Chloro-3-methylbenzo[b]thien-2-yl)-1-piperazinyl]-1-ethyl-6-fluoro-1,4-dihydro-4-oxo-3-quinolinecarboxylic acid]	> 256 µg/mL	> 256 µg/mL	> 256 µg/mL	> 256 µg/mL	> 256 µg/mL	> 256 µg/mL	> 256 µg/mL	> 256 µg/mL	> 256 µg/mL	> 256 µg/mL	> 256 µg/mL	–	–	–	–	–	> 256 µg/mL	–
CCn1cc(C(=O)O)c(=O)c2cc(F)c(N3CCNC(CF)C3)cc21 (stereo not shown) [Example 24]	≤ 0.12 µg/mL	≤ 0.12 µg/mL	≤ 0.12 µg/mL	2 µg/mL (≈ 5.69 µM)	≤ 0.12 µg/mL	≤ 0.12 µg/mL	≤ 0.12 µg/mL	≤ 0.12 µg/mL	≤ 0.12 µg/mL	≤ 0.12 µg/mL	≤ 0.12 µg/mL	–	–	–	–	–	2 µg/mL (≈ 5.69 µM)	–
